Like-named read-outs stand apart in the source and are kept apart here.
Legend:
[1] = tested on: A549 cells; type: cell-based; conditions: for Activity as enhancer of doxorubicin-induced cell death, relative activity symbol: A549 cell cultures; for toxicity of the compound by itself in A549 cultures: 50 μM
Method: FIG. 2. […] Cells were seeded in 96-well plates and treated with the indicated compound combinations. The cellular viability (cell number) was measured with alamarBlue® and arbitrary units of fluorescence after 36 h of treatment (vertical axis).
FIG. 7. […] A549 cells were seeded on 96-well culture plates and after 4 h were treated with the indicated concentrations of doxorubicin in absence or presence of T12 (50 μM) and/or CFTR-inhibitor-172 (25 μM). Cells were cultured for additional 36 h and cell viability assessed as in FIG. 2.
A549 human lung adenocarcinoma cancer cells (CLS Cell Lines Service) were used as an ex vivo model for the assessment of anti-tumor activity of specific compounds. Unless otherwise indicated A549 cells were cultured in DMEM: Ham's F12 medium supplemented with 2 mM L-glutamine and 10% fetal bovine serum. A549 cells resistant to doxorubicin (A549-DR) were obtained treating cells with 1 μM for 4 weeks. A549 cells were transfected with a plasmid that expresses GPBP-1 and further selected with G418 (Invitrogen) to obtain a cell line (A549-GPBP) that constitutively expresses GPBP-1.
Cytotoxicity assays were performed with alamarBlue® reagent (Invitrogen) according to manufacturer's instructions. A549 cells were seeded on 96-well culture plates (7,500 cells/well) and allowed to settle during 4 h. Then, cells were cultured with individual peptidomimetics at concentrations ranging from 0 to 50 μM, in presence of doxorubicin at concentrations ranging from 0 to 10 μM for 36 h. JLSM cells were harvested by treatment with 0.25% trypsin (Lonza) and plated on collagen I coated 96-well black culture plate (Perkin Elmer) at a density of 10.000 cells per cm^2. After 4 h settling, cells were treated with different peptidomimetics (with or without doxorubicin) for 36 h. Subsequently alamarBlue® reagent was added and incubation maintained for 3 h. Fluorescence was measured using 560EX nm/590EM nm filter settings with a SpectraMax GeminiXPS (Molecular Devices). Blank wells containing media were used to determine background fluorescence.
The activity shown for each compound in Table 1 is the factor by which doxorubicin LC50 is reduced by the compound at a 50-μM concentration in A549 cell cultures. […] The symbols −, −/+, +, ++, +++, ++++ in the third column are used to show relative activities of compounds in a simplified way.

[2] = tested on: CSC derived from a uterine cancer; assay: Sensitivity of CSC derived from a uterine cancer; type: cell-based; conditions: data not shown
[3] = biological target: T1, human recombinant GPBP-1 (Homo sapiens, UniProt Q9Y5P4); conditions: Saus et al. 2008, 2010; cited from earlier work
T1 construct: made in house; host or cells: Pichia pastoris
T1 sequence (Q9Y5P4 1-624): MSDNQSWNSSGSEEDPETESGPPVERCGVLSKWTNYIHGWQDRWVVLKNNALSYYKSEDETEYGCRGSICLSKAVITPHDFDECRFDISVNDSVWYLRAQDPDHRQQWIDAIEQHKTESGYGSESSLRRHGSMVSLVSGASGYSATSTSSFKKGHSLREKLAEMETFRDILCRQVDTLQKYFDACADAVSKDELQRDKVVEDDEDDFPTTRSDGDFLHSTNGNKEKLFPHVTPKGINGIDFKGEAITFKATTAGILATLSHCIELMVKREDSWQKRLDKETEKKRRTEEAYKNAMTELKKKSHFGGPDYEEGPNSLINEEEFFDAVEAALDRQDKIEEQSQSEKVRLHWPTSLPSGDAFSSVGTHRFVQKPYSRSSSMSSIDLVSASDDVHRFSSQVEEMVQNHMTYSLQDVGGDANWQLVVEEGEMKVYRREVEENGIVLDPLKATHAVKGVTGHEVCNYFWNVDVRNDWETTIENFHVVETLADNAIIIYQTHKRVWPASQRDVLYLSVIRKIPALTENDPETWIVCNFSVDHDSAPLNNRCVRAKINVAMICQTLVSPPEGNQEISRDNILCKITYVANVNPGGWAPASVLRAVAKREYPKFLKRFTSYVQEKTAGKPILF

Row | Compound | Activity as enhancer of doxorubicin-induced cell death, relative activity symbol ([1]; compound at 50 μM) | further results
1 | Cc1cccc(-c2ccc(-c3ccc(O)cc3CCC(=O)O)cc2CO)c1 | −/+ | 
2 | Cc1cccc(-c2ccc(-c3ccc(O)cc3CCC(=O)O)cc2C)c1 | ++ | 
3 | Cc1cccc(-c2ccc(-c3ccc(O)cc3CCC(=O)O)cc2CF)c1 | ++ | 
4 | Cc1cccc(-c2ccc(-c3ccc(O)cc3CCC(=O)O)cc2C(F)F)c1 | ++ | 
5 | COc1ccc(-c2ccc(-c3cccc(C)c3)c(CO)c2)c(CCC(=O)O)c1 | −/+ | 
6 | O=C(O)CCc1cc(O)ccc1-c1ccc(-c2cccc(C(F)(F)F)c2)c(CO)c1 | − | 
7 | Cc1cc(-c2ccc(O)cc2CCC(=O)O)ccc1-c1cccc(C(F)(F)F)c1 | + | 
8 | O=C(O)CCc1cc(O)ccc1-c1ccc(-c2cccc(C(F)(F)F)c2)c(CF)c1 | ++++ | 
9 | O=C(O)CCc1cc(O)ccc1-c1ccc(-c2cccc(C(F)(F)F)c2)c(C(F)F)c1 | ++ | 
10 | COc1ccc(-c2ccc(-c3cccc(C(F)(F)F)c3)c(CO)c2)c(CCC(=O)O)c1 | + | 
11 | COc1ccc(-c2ccc(-c3cccc(C(F)(F)F)c3)c(C)c2)c(CCC(=O)O)c1 | +++ | 
12 | O=C(O)CCc1cc(O)ccc1-c1ccc(-c2cccnc2)c(CO)c1 | + | 
13 | O=C(O)CCc1cc(O)ccc1-c1ccc(-c2cccnc2)c(CF)c1 | + | 
14 | O=C(O)CCc1cc(O)ccc1-c1ccc(-c2cccnc2)c(C(F)F)c1 | + | 
15 | C[n+]1cccc(-c2ccc(-c3ccc(O)cc3CCC(=O)[O-])cc2CO)c1 | − | 
16 | COc1ccc(-c2ccc(-c3cccnc3)c(CO)c2)c(CCC(=O)O)c1 | − | 
17 | COc1ccc(-c2ccc(-c3cccnc3)c(C)c2)c(CCC(=O)O)c1 | ++++ | 
18 | COc1ccc(-c2ccc(-c3cccnc3)c(CF)c2)c(CCC(=O)O)c1 | +++ | 
19 | Cc1cccc(-c2ccc(-c3ccc(OCC(=O)O)cc3CCC(=O)O)cc2C)c1 | − | 
20 | CCCCCCCCCCCCCCCC(=O)Oc1ccc(-c2ccc(-c3cccc(C)c3)c(C)c2)c(CCC(=O)O)c1 | − | 
21 | CCOC(=O)CCc1cc(O)ccc1-c1ccc(-c2cccc(C(F)(F)F)c2)c(C)c1 | −? | 
22 | Cc1cccc(-c2ccc(-c3ccc(O)cc3C(C)C)cc2CCC(=O)O)c1 | + | 
23 | Cc1cccc(-c2ccc(-c3ccc(O)cc3CCO)cc2CCC(=O)O)c1 | + | 
24 | COc1ccc(-c2ccc(-c3ccc(OC)c(C)c3)c(C)c2)c(CCC(=O)O)c1 | ++++ | 
25 | CCOC(=O)CCc1cc(O)ccc1-c1ccc(-c2cccnc2)c(CO)c1 [13c] |  | toxicity of the compound by itself in A549 cultures [1]: significantly toxic; Activity as enhancer of doxorubicin-induced cell death, relative activity symbol ([1]; compound at 10 μM): +
26 | CCCOc1ccc(-c2ccc(-c3cccc(C)c3)c(C)c2)c(CCC(=O)O)c1 [24a] |  | toxicity of the compound by itself in A549 cultures [1]: significantly toxic; Activity as enhancer of doxorubicin-induced cell death, relative activity symbol ([1]; compound at 25 μM): ++
27 | CCCOc1ccc(-c2ccc(-c3cccc(C(F)(F)F)c3)c(C)c2)c(CCC(=O)O)c1 [24c] |  | toxicity of the compound by itself in A549 cultures [1]: significantly toxic; Activity as enhancer of doxorubicin-induced cell death, relative activity symbol ([1]; compound at 10 μM): ++
28 | O=C(O)c1ccc(C=C2SC(=S)N(c3cccc(C(F)(F)F)c3)C2=O)cc1 [CFTR/ABCC7 inhibitor 172, 3-[(3-Trifluoromethyl)phenyl]-5-[(4-carboxyphenyl)methylene]-2-thioxo-4-thiazolidinone, reference compound] |  | cell viability in cultures treated with T12 with or without doxorubicin ([1]; CFTR-inhibitor-172 25 μM, T12 50 μM, 36 h): significantly reduced cell viability
29 | COc1ccc(-c2ccc(-c3ccc(OC)c(Cl)c3)c(C)c2)c(CCC(=O)O)c1 [T55] |  | Activity as enhancer of doxorubicin-induced cell death, relative activity symbol ([1]; compound at 25 μM): ++++; sensitivity of uterine cancer CSC to the compound [2]: highly sensitive
30 | LATLSHCIELMVKR (SEQ ID NO: 8) [Q2, isolated peptide representing 260SHCIE264 and flanking regions of GPBP-1] |  | inhibition of GPBP-1 kinase activity [3]: efficiently inhibits

Source: patent US9066938B2, “GPBP-1 inhibition and its therapeutic use” (Fibrostatin S.L., priority 2012, dated 2015)
